From patent publication US8263344B2, “Compounds regulating calreticulin, KDEL receptor and/or Erp-57 cell surface exposure and uses thereof to evaluate the efficiency of a cancer treatment” (Institut Gustave Roussy, priority 2006, dated 2012)
Peptide text beside a SMILES is read from it. * marks the point of attachment. Cbz = O=C(OCc1ccccc1)*; CH2F = FC*

Columns and labels:
[1] = test system: CT26 tumour cells; assay: Anti-tumour vaccination with treated (dying) CT26 cells and challenge with live tumour cells; format: in vivo, BALB/c mice; details: for immunogenic cell death by PP1/GADD34 inhibition alone: mouse, in vivo
[2] = test system: CT26 cells; assay: Fluorescence detection of cell surface CRT; format: cell-based, murine
Protocol: CT26 cells were cultured at 37° C. under 5% CO2 in RPMI 1640 medium supplemented with 10% FCS, penicillin, streptomycin, 1 mM pyruvate and 10 mM HEPES in the presence of doxorubicin (DX; 24 h, 25 μM), mitoxantrone (Mitox; 24 h, 1 μM, Sigma), idarubicin (24 h, 1 μM, Aventis, France), mitomycin C (30 μM, 48 h; Sanofi-Synthelabo, France), and/or zVAD-fmk (50 μM, 24 h; Bachem), tunicamycin (24 h, 65 μM), thapsigargin (24 h, 30 μM), brefeldin A (24 h, 50 μM, Sigma), etoposide (48 h, 25 μM, Tava classics), MG132 (48 h, 10 μM), ALLN (48 h, […]), betulinic acid (24 h, 10 μM), Hoechst 33343 (24 h, 0.2 μM), camptothecine (24 h, 15 μM), lactacystin (48 h, 60 μM), BAY 11-8072 (24 h, 30 μM), staurosporine (24 h, 1.5 μM), bafilomycin A1 (48 h, 300 nM), arsenic trioxide (24 h, 30 μM), C2-ceramide (C2-C; 24 h, 60 μM), calyculin A (48 h, 30 nM), or tautomycin (48 h, […], Sigma) and/or salubrinal (48 h, […], Calbiochem).
CT26 cells (on a glass slide or in 12-well plates) were first washed with FACS buffer (1×PBS, 5% fetus bovine serum, and 0.1% sodium azide) and then incubated with rabbit anti-mouse CRT antibody (1:100, Stressgen) in FACS buffer at 4° C. for 30 min. Cells reacted with anti-rabbit IgG (H+L) Alexa fluor 488-conjugates (1:500) in FACS buffer at 4° C. for 30 min. After washing three times with FACS buffer, surface CRT was detected by cytofluorometric analysis on a FACS Vantage. In some experiments, cells were fixed with 4% paraformaldehyde, counterstained with Hoechst (2 μM; Sigma), followed by fluorescence microscopic assessment with a Leica IRE2 microscope equipped with a DC300F camera.

[3] = test system: CT26 tumours; assay: Single intratumoural injection into established CT26 tumours, immunocompetent mice; format: in vivo, BALB/c mice; details: for therapeutic effect of intratumoural injection, single agent, immunocompetent mice: established 14-day-old CT26 tumours; for therapeutic effect combined with a cell death inducer (etoposide or mitomycin C), immunocompetent mice: intratumoural
[4] = test system: CT26 tumours; assay: Single intratumoural injection into established CT26 tumours, athymic mice; set-up: species or system nu/nu Balb/c mice; details: mouse, in vivo
[5] = test system: HeLa cells; assay: Surface ERp57 detection (immunofluorescence, flow cytometry); format: cell-based, human; details: 2 h, MTX 1 μM
Protocol: HeLa cells were cultured on cover slips (in RPM1160 medium supplemented with 10% fetal calf serum, L-glutamine and antibiotics), in the absence (control) or in the presence of 1 μM mitoxantrone (MTX, Sigma) for 2 h. For the intracellular stainings, HeLa cells were fixed and permeabilised by means of Cytofix/Cytoperm kit from Becton Dickinson according to the manufacturer's instructions. For the surface stainings, HeLa cells were fixed with paraformadehyde (4% w/v) on ice for 5 min. […] Nuclei were labelled with DAPI mounting medium (Vectashield). Fluorescence microscopy was analyzed with a Leica IRE2 equipped with a DC300F camera. Size bars represent 10 μm.
HeLa cells were treated with or without mitoxantrone (MTX, 1 μM) or tautomycin (Tau, 150 nM, Sigma) for 2 h. Cells were washed twice with PBS and fixed in PFA (4% w/v) for 5 min. HeLa cells were stained with an antibody against Erp57 (pAb from Abcam, ab10827) at 1:200 dilution or isotype control, in staining buffer (PBS, 1% FCS) for 30 min on ice, followed by washing. An anti-rabbit Alexa fluor 488 immunoglobulin conjugate (Molecular Probes-Invitrogen) diluted at 1:500 was added for an additional 30 min on ice before washing and analysed by flow cytometry (FACScan, Becton Dickinson). […] The CellQuest software was used to analyse the mean fluorescence intensity (MFI) and the percentage of ERp57 positive cells.
FIG. 12: ERp57 exposure depends on the activation of a caspase. • (A) HeLa cells were treated with MTX (1 μM) for 2 h in the presence or absence of 50 μM zVAD.fmk. The MFI of surface Erp57 positive cells was analysed as described in FIG. 9. • (B) HCT116 parental cells stably transfected with either a vector encoding p35 (Stennicke et al., 2002; Date et al., 2003) or with a PCMV vector (Sigma) as control, were treated with MTX (1 μM) for 2 h. The MFI of surface Erp57 positive cells was analysed as described in FIG. 9. • (C) HCT116 cells were pre-incubated in the presence of 50 μM biotinylated VAD.fmk (Calbiochem) for 2 h. […]

[6] = test system: CT26 cells; assay: Phagocytosis of tumour cells by dendritic cells (DC); format: cell-based, BALB/c mice
Protocol: BM cells were flushed from the tibias and femurs of BALB/c mice with culture medium composed of RPMI 1640 medium (Invitrogen Life Technologies) supplemented with 10% heat-inactivated FBS (Invitrogen), sodium pyruvate, 50 μM 2-ME (Sigma), 10 mM HEPES (pH 7.4), and penicillin/streptomycin (Invitrogen). After one centrifugation, BM cells were resuspended in Tris-ammonium chloride for 2 min to lyse RBC. After one more centrifugation, BM cells (1×10^6 cells/ml) were cultured in medium supplemented with 100 ng/ml recombinant mouse FLT3 ligand (R&D systems) in 6-well plates (Costar Corning). After 7 days, the non-adherent and loosely adherent cells were harvested with Versene, washed and transferred in 12-well plates (1.5×10^6 cells/plate) for cocultures with tumour cells.
In 12-well plates, […] adherent CT26 cells were labelled with Celltracker Green (Calbiochem) and then incubated with drugs. In some experiments viable CT26 were coated with 2 μg/10^6 cells of chicken anti-CRT antibody (ABR affinity bioreagents) or an isotype control for 30 min prior to washing and feeding to dendritic cells Cs. Alternatively CT26 cells were coated with 2 μg/10^6 cells of rCRT on ice for 30 min and washed twice prior to addition to dendritic cells. Cells were then harvested, washed three times with medium supplemented with FBS and cocultured with immature DC for 2 hours at a ratio of 1:1 and 1:5. At the end of the incubation, cells were harvested with versene, pooled with non-adherent cells present in the supernatant, washed and stained with CD11c-FITC antibody. Phagocytosis was assessed by FACS analysis of double positive cells. Phagocytic indexes refer to the ratio between values obtained at 4° C. and values obtained at 37° C. of co-incubation between DC and tumour cells.

[7] = test system: CT26 cells; assay: Biotinylation of cell surface proteins, 2D gel electrophoresis and mass spectrometry
[8] = test system: HCT116 colon cancer cell; assay: Calreticulin exposure with PP1/GADD34 inhibitory peptide (flow cytometry); format: cell-based, human; details: 2 hours
Protocol: (§1) HCT116 cells (FIG. 7A) or CT26 cells (FIG. 7B) were cultured in complete mediums supplemented with 10% fetal calf serum alone or in the presence of the control peptide (VKKKKIKREIKI-lkaravafsekv) or the PP1/GADD34 inhibitory peptide (VKKKKIKREIKI-lkarkvrfsekv, denominated PP1 peptide) for 2 hours. Cells were washed twice with PBS and fixed in PFA (4% w/v) for 5 min. Cells were stained with an antibody against calreticulin (pAb from Abcam, ab2907) at 1:200 dilution or isotype control, in staining buffer (PBS, 1% FCS) for 30 min on ice, followed by washing. An anti-rabbit Alexa fluor 488 immunoglobulin conjugate (Molecular Probes-Invitrogen) diluted at 1:500 was added for an additional 30 min on ice before washing and analysed by flow cytometry (FACScan, Becton Dickinson). Propidium Iodide (50 μg/ml, Becton Dickinson) was added to the samples to label and exclude permeabilized (dead) cells.

[9] = test system: CT26 colon cancer cells; assay: as above; format: cell-based, murine; details: 2 hours
Protocol: as §1

[10] = test system: MCA205, B16F10, J558; assay: CRT exposure on a panel of murine tumour cell lines; format: cell-based
[11] = test system: HeLa, A549, HCT116; assay: CRT exposure on a panel of human tumour cell lines; format: cell-based

Molecule: CO[C@H]([C@H](O)CC(=O)[C@@H](C)[C@@H](O)CC[C@@H](C)[C@@H]1O[C@]2(CC[C@@H](C)[C@H](CC[C@H](C)C(C)=O)O2)CC[C@@H]1C)[C@H](OC(=O)C[C@@H](O)C1=C(C)C(=O)OC1=O)C(C)C [tautomycin]
- immunogenic cell death by PP1/GADD34 inhibition alone [1]: not sufficient to induce immunogenic cell death
- CRT exposure at the cell surface [2]: efficiently induced
- therapeutic effect of intratumoural injection, single agent, immunocompetent mice [3]: no major therapeutic effect
- therapeutic effect combined with a cell death inducer (etoposide or mitomycin C), immunocompetent mice [3]: stable disease or complete tumour regression
- therapeutic effect of intratumoural injection, single agent, nu/nu mice [4]: no major therapeutic effect
- surface exposure of ERp57 ([5]; Tau 150 nM): stimulates the surface exposure

Molecule: COc1cccc2c1C(=O)c1c(O)c3c(c(O)c1C2=O)C[C@@](O)(C(=O)CO)C[C@@H]3O[C@H]1C[C@H](N)[C@H](O)[C@H](C)O1 [doxorubicin]
- immunogenic apoptosis / immunogenic cell death (protection against tumour growth) ([1]; dying CT26 cells injected into one flank, rechallenge with live tumour cells in opposite flank 8 days later): elicited immunogenic cell death
- phagocytosis of treated tumour cells by DC ([6]; within a few hours after treatment): acquired the property to be phagocytosed by DC
- induction of surface CRT (factor), combined with Z-VAD-fmk ([7]; 4 h, doxorubicin plus Z-VAD-fmk): 1.8
- ERP57 surface exposure ([7]; 4 h treatment, 2D electrophoreses): specifically induced
- induction of surface CRT (factor) ([7]; short-term (4 h) treatment, biotinylated surface proteins, 2D electrophoreses): 6

Molecule: VKKKKIKREIKI-lkaravafsekv [mutant control peptide]
- exposure of calreticulin, HCT116 [8]: did not induce calreticulin exposure
- exposure of calreticulin, CT26 [9]: did not induce calreticulin exposure

Molecule: 5′-rCrCrGrCUrGrGrGUrCrGrArAUrCrRrArATT-3′ [specific siRNA]
- phagocytosis by DC of anthracyclin/mitoxantrone-treated tumour cells after blockade or knockdown of CRT [6]: suppressed the phagocytosis

Molecule: VKKKKIKREIKI-LKARKVRFSEKV (VKKKKIKREIKILKARKVRFSEKV) [peptide comprising SEQ ID NO:4, fragment of GADD34 fused to a DPT-sh1 translocation motif]
- exposure of calreticulin, HCT116 [8]: capable of inducing the exposure of calreticulin
- exposure of calreticulin, CT26 [9]: capable of inducing the exposure of calreticulin

Molecule: COC(=O)C[C@H](NC(=O)[C@H](C)NC(=O)[C@@H](NC(=O)OCc1ccccc1)C(C)C)C(=O)CF [Z-VAD-fmk] (Cbz-Val-Ala-Asp(OMe)-CH2F)
- effect on immunogenicity of doxorubicin-elicited cell death ([1]; doxorubicin plus Z-VAD-fmk): reduces the immunogenicity
- effect on ERp57 exposure induced by MTX [5]: abolished

Molecule: O=C(/C=C/c1ccccc1)NC(NC(=S)Nc1cccc2cccnc12)C(Cl)(Cl)Cl (stereo not shown) [salubrinal]
- immunogenic cell death by PP1/GADD34 inhibition alone [1]: not sufficient to induce immunogenic cell death
- CRT exposure at the cell surface [2]: efficiently induced
- therapeutic effect of intratumoural injection, single agent, immunocompetent mice [3]: no major therapeutic effect
- therapeutic effect combined with a cell death inducer (etoposide or mitomycin C), immunocompetent mice [3]: stable disease or complete tumour regression
- therapeutic effect of intratumoural injection, single agent, nu/nu mice [4]: no major therapeutic effect
- CRT exposure, murine tumour cell lines [10]: induced CRT exposure
- CRT exposure, human tumour cell lines [11]: induced CRT exposure
